Literature values in patent publication US20100234277A1, “COADMINISTRATION OF ALPHA-FETOPROTEIN AND A DISEASE MODIFYING ANTI-RHEUMATIC DRUG FOR TREATING INFLAMMATORY ARTHRITIC DISEASE” (priority 2006, published 2010).

Details: in vivo

## CN(Cc1cnc2nc(N)nc(N)c2n1)c1ccc(C(=O)N[C@@H](CCC(=O)O)C(=O)O)cc1 [methotrexate, N-[4-[[(2,4-diamino-6-pteridinyl)methyl]methylamino]benzoyl]-L-glutamic acid]
  individuals with rheumatoid arthritis (RA) that respond favorably to treatment: Approximately 70%
